{
  "source": "patent US5610174A",
  "about": "“Use of α1A -selective adrenoceptor agonists for the treatment of urinary incontinence” (priority 1995, dated 1997)",
  "type_in_all_cases": "cell-based",
  "key": {"human α1A adrenoceptor": {"target": "T1, human α1A adrenoceptor (Homo sapiens, UniProt P25100)", "T1 sequence (P25100 1-572)": "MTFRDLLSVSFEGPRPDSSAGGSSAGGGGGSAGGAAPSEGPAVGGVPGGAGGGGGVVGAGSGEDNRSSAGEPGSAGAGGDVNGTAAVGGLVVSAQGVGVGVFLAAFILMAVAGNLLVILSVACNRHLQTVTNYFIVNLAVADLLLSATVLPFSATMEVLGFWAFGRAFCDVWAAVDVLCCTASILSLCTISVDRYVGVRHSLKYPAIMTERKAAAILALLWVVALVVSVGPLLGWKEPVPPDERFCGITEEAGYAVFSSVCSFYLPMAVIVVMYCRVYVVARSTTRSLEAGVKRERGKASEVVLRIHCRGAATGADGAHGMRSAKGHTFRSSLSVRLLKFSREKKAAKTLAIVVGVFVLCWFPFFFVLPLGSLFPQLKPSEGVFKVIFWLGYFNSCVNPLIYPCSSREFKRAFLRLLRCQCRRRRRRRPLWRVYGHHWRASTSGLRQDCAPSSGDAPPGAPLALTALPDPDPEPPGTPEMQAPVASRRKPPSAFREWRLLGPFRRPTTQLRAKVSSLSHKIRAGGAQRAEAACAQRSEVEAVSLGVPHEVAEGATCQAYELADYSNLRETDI", "assay": "cell-based", "details": "for Emax: read-out: intrinsic activity (i.a.) α1A; for stimulation of inositol phosphate production, α1A: result in words", "procedure": "(§1) α1 -Adrenoceptor-Mediated Phosphoinositide Accumulation in Cultured Cell Lines\n(§2) The agonist activity of test compounds was assayed by measuring their ability to generate phosphoinositide production in cells stably transfected with each of the three cloned human α1 -adrenoceptor subtypes. Cells were plated in 96-well plates and grown to confluence. The day before the assay the growth medium was changed to 100 μl of medium containing 1% serum and 0.5 μCi [^3 H] myo-inositol, and the plates were incubated overnight in a CO2 incubator (5% CO2 at 37° C.). Immediately before the assay, the medium was removed and replaced by 200 μl of PBS containing 10 mM LiCl, and the cells were equilibrated with the new medium for 20 min. During this interval cells were also equilibrated with the antagonist, added as 10 μl aliquot of a 20-fold concentrated solution in PBS.\n(§3) The [^3 H] inositol-phosphate (IP) accumulation was started by adding 10 μl of a solution containing the agonist. To the first well 10 μl were added to measure basal accumulation, and 11 different concentrations of agonist were assayed in the following 11 wells of each plate row. All assays were performed in duplicate by repeating the same additions in two consecutive plate rows. The plates were incubated in a CO2 incubator for 1 hr. The reaction was terminated by adding 15 μl of 50% (v/v) trichloroacetic acid (TCA), followed by a 40 min incubation at 4° C.\n(§4) After neutralizing TCA with 40 μl of 1 M Tris, the content of the wells was transferred to a Multiscreen HV filter plate (Millipore) containing Dowex AG1-X8 (200-400 mesh, formate form). The filter plates were prepared adding 200 μl of Dowex AG1-X8 suspension (50% v/v, water:resin) to each well. The filter plates were placed on a vacuum manifold to wash or eluted the resin bed. Each well was washed 2 times with 200 μl of water, followed by 2×200 μ of 5 mM sodium tetraborate/60 mM ammonium formate. The [3H] IPs were eluted into empty 96-well plates with 200 μl of 1.2 M ammonium formate/0.1 formic acid. The content of the wells was added to 3 mls of scintillation cocktail, and the radioactivity was determined by liquid scintillation counting."}, "human α2C adrenoceptor": {"target": "T2, human α2C adrenoceptor (Homo sapiens, UniProt P18825)", "T2 construct": "expressed in transfected cells; host or cells: LM(tk-)", "T2 sequence (P18825 1-462)": "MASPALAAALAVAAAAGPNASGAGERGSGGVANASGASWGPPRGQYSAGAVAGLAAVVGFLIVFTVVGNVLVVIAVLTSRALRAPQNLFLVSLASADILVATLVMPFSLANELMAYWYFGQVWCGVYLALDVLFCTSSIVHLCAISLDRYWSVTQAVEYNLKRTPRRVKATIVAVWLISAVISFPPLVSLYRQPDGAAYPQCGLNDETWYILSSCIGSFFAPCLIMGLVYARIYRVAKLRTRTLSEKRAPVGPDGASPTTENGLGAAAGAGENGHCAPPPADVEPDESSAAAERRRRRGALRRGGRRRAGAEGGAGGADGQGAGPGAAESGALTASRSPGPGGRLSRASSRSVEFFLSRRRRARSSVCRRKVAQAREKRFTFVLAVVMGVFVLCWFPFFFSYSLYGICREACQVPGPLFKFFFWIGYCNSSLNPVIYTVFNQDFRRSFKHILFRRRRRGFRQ", "assay": "Inhibition of forskolin stimulated adenylyl cyclase, α2C", "details": "for Emax: read-out: intrinsic activity (i.a.) α2C", "procedure": "α2 -Adrenoceptor-Mediated Inhibition of Forskolin Stimulated Adenylyl Cyclase\nThe agonist activity of test compounds was assayed by measuring their ability to inhibit adenylyl cyclase in cells stably transfected with each of the three cloned human α2 -adrenoceptors. LM(tk-) cells expressing the α2A - or the α2C -, as well as Y1 cells expressing the α2B -adrenoceptor were used. […] The formation of cyclic AMP was measured in cultures incubated with DMEM containing 1 mM theophylline. Twelve concentrations of the test compounds (from 10 pM to 100 μM) were added to the incubation medium and incubated at 37° C. for 20 min. Following this incubation step, 10 μM forskolin was added to stimulate the formation of cyclic AMP, and the cultures were incubated for another 10 min. The reaction was stopped by replacing the incubation medium with 100 mM HCl . The intracellular levels of cyclic AMP were measured by radioimmunoassay. The data from concentration-response curves was fitted to a four-parameter logistic equation, by non-linear regression analysis, to determine the pEC50 and intrinsic activity."}, "human α1B adrenoceptor": {"target": "T3, human α1B adrenoceptor (Homo sapiens, UniProt P35368)", "T3 construct": "The entire coding region of the α1B receptor (1563 bp); expressed in transfected cells", "T3 sequence (P35368 1-520)": "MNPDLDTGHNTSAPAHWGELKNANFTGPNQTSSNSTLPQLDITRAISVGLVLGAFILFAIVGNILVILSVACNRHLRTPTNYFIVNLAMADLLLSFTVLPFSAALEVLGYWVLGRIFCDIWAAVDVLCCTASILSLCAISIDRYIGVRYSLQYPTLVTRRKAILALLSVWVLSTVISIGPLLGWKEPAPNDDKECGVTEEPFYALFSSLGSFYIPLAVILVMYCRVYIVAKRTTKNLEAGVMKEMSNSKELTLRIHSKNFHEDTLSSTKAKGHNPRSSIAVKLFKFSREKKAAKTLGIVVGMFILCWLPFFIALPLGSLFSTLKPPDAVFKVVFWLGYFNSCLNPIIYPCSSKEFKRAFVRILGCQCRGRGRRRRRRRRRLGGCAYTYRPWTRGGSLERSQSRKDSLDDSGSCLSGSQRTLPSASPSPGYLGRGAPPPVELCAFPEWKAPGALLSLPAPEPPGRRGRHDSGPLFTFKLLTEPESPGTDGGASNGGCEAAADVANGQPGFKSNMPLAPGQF", "assay": "Phosphoinositide accumulation in cells expressing α1B", "details": "for Emax: read-out: intrinsic activity (i.a.) α1B; for stimulation of inositol phosphate production, α1B: result in words", "procedure": "as §1, §2, §3, §4"}, "[1]": {"details": "agonist, phosphoinositide accumulation, read-out: pEC50 α1A (converted)"}, "[2]": {"details": "relative to reference full agonist (e.g., norepinephrine = unity)"}, "[3]": {"details": "agonist, inhibition of forskolin stimulated adenylyl cyclase, read-out: pEC50 α2C (converted)"}},
  "note": "Like-named read-outs stand apart in the source and are kept apart here.",
  "data": [
    {"smiles": "C[C@H](N)[C@H](O)c1ccccc1", "note": "[(-)-norephedrine]", "values": [
      {"measurement": "EC50", "setting": "human α1A adrenoceptor", "value": 15.8, "unit": "µM"},
      {"measurement": "Emax", "setting": "human α1A adrenoceptor", "value": 30, "unit": "%"},
      {"measurement": "EC50", "setting": "human α2C adrenoceptor", "value": 0.126, "unit": "µM"},
      {"measurement": "Emax", "setting": "human α2C adrenoceptor", "value": 60, "unit": "%"},
      {"measurement": "EC50", "setting": "human α1B adrenoceptor", "value": 31.6, "unit": "µM"},
      {"measurement": "Emax", "setting": "human α1B adrenoceptor", "value": 0, "unit": "%"}
    ]},
    {"smiles": "CN[C@@H](C)[C@H](O)c1ccccc1", "note": "[(-)-ephedrine]", "values": [
      {"measurement": "EC50", "setting": "human α1A adrenoceptor", "value": 100, "unit": "µM"},
      {"measurement": "Emax", "setting": "human α1A adrenoceptor", "value": 10, "unit": "%"},
      {"measurement": "EC50", "setting": "human α2C adrenoceptor", "value": 10, "unit": "µM"},
      {"measurement": "Emax", "setting": "human α2C adrenoceptor", "value": 0, "unit": "%"},
      {"measurement": "EC50", "setting": "human α1B adrenoceptor", "value": 100, "unit": "µM"},
      {"measurement": "Emax", "setting": "human α1B adrenoceptor", "value": 20, "unit": "%"}
    ]},
    {"smiles": "CS(=O)(=O)Nc1c(O)ccc2c1CCCC2C1=NCCN1", "note": "(racemic) [Compound A-61603, (±)-N-[5-(4,5-Dihydro-1H-imidazol-2-yl)-2-hydroxy-5,6,7,8-tetra-hydronaphthalen-1-yl]methanesulfonamide]", "values": [
      {"measurement": "EC50", "setting": "human α1A adrenoceptor; [1]", "value": 25.1, "unit": "µM"},
      {"measurement": "Emax", "setting": "human α1A adrenoceptor; [2]", "value": 10, "unit": "%"},
      {"measurement": "stimulation of inositol phosphate production, α1A", "setting": "human α1A adrenoceptor", "value": "virtually inactive"},
      {"measurement": "EC50", "setting": "human α2C adrenoceptor; [3]", "value": 0.02, "unit": "µM"},
      {"measurement": "Emax", "setting": "human α2C adrenoceptor; [2]", "value": 90, "unit": "%"},
      {"measurement": "EC50", "setting": "human α1B adrenoceptor", "value": 39.8, "unit": "µM"},
      {"measurement": "Emax", "setting": "human α1B adrenoceptor; [2]", "value": 10, "unit": "%"},
      {"measurement": "stimulation of inositol phosphate production, α1B", "setting": "human α1B adrenoceptor", "value": "virtually inactive"}
    ]},
    {"smiles": "COc1ccc(SC)c2c1C[C@@H]1[C@@H](C2)OCCN1C", "note": "(relative stereo) [SDZ NVI-085, (±)-trans-4-Methyl-6-methoxy-9-thiomethoxy-3,4,4a, 5,10,10a-hexahydro-2H-naphtho[2,3-b][1,4]oxazine]", "values": [
      {"measurement": "EC50", "setting": "human α1A adrenoceptor; [1]", "value": "> 100", "unit": "µM"},
      {"measurement": "Emax", "setting": "human α1A adrenoceptor", "value": 0, "unit": "%"},
      {"measurement": "EC50", "setting": "human α2C adrenoceptor; [3]", "value": "> 100", "unit": "µM"},
      {"measurement": "Emax", "setting": "human α2C adrenoceptor", "value": 0, "unit": "%"},
      {"measurement": "EC50", "setting": "human α1B adrenoceptor; agonist, phosphoinositide accumulation, read-out: pEC50 α1B (converted)", "value": "> 100", "unit": "µM"},
      {"measurement": "Emax", "setting": "human α1B adrenoceptor", "value": 0, "unit": "%"}
    ]},
    {"smiles": "COc1ccc(OC)c(C(O)CN)c1", "note": "(racemic) [ST-1059, (±)-2-Amino-1-(2, 5 dimethoxyphenyl) ethanol]", "values": [
      {"measurement": "EC50", "setting": "human α1A adrenoceptor", "value": 1.58, "unit": "µM"},
      {"measurement": "Emax", "setting": "human α1A adrenoceptor", "value": 10, "unit": "%"},
      {"measurement": "EC50", "setting": "human α2C adrenoceptor", "value": 0.501, "unit": "µM"},
      {"measurement": "Emax", "setting": "human α2C adrenoceptor", "value": 50, "unit": "%"},
      {"measurement": "EC50", "setting": "human α1B adrenoceptor", "value": 6.31, "unit": "µM"},
      {"measurement": "Emax", "setting": "human α1B adrenoceptor", "value": 10, "unit": "%"}
    ]},
    {"smiles": "CNCCc1ccc(O)c(NS(C)(=O)=O)c1", "note": "[SK&F 102652]", "values": [
      {"measurement": "Emax", "setting": "human α1A adrenoceptor", "value": 10, "unit": "%"},
      {"measurement": "stimulation of inositol phosphate production, α1A", "setting": "human α1A adrenoceptor", "value": "virtually inactive"},
      {"measurement": "Emax", "setting": "human α2C adrenoceptor", "value": 80, "unit": "%"},
      {"measurement": "Emax", "setting": "human α1B adrenoceptor", "value": 10, "unit": "%"},
      {"measurement": "stimulation of inositol phosphate production, α1B", "setting": "human α1B adrenoceptor", "value": "virtually inactive"}
    ]},
    {"smiles": "CNC[C@H](O)c1cccc(O)c1", "note": "[(-)-phenylephrine]", "values": [
      {"measurement": "Emax", "setting": "human α1A adrenoceptor; [2]", "value": 70, "unit": "%"},
      {"measurement": "intrinsic activity (i.a.) α2C", "setting": "human α2C adrenoceptor; [2]", "value": 0.9},
      {"measurement": "Emax", "setting": "human α1B adrenoceptor; [2]", "value": 90, "unit": "%"}
    ]}
  ]
}
